“Also recorded” adds a separate entry of the source. Read-outs that look alike come from different tables or passages of the source.

Data set [1] in a line: Kurtz and Perry assessment of phase matching properties. The format is physicochemical. As to conditions: graded powders 550 μm to 40 μm, 12 ns pulses at 1064 nm, fixed input pulse energy. Here is the method:
The phase matching properties of those more promising materials which performed well in the initial screening have been evaluated using the well established Kurtz and Perry technique (J Appl Phys, 1968, 39, 3798). In this method the SHG intensity (λ=532 nm) is measured as a function of the particle size for a fixed input pulse energy. […] The consequence of this is that the harmonic fields can build up in amplitude thus making the material more desirable for SHG applications.
To perform the Kurtz and Perry test powdered samples of the materials were graded using a mechanical shaker set up with a set of standard sieves (550 μm to 40 μm). The graded powders were then mounted in a thin aluminium holder placed between two glass slides. The following criteria was used to ensure the validity of the method: r<L<D where, • r=average particle size • L=thickness of the powdered sample (i.e. thickness of the aluminium spacer) • D=diameter of the laser beam incident on the sample. In the present experiments, there was at least an order of magnitude difference between these parameters.
The same laser as before was used to provide 12 ns FWHM pulses at 1064 nm. […] The magnitude of the SHG signal was measured as the number of counts using an Optical Multichannel Analyser (OMA) with an intensified array. This was preferred to a photomultiplier tube as it enabled the presence of any fluorescence or abnormal spectral emissions from the sample, for example due to damage etc., to be determined.

For data set [2] the following is noted: judged by eye. An excerpt: The capability for novel materials of the invention to achieve frequency doubling into the blue area of the spectrum was examined. The light source for this investigation was a MOPO (Master Oscillator Power Oscillator) model 730-10 pumped by GCR 270-10 Nd:YAG laser (supplied by Spectra Physics). The incident pulse width output from this laser ranged from 4 ns to 6 ns. Light of a specified wavelength was directed onto a sample sandwiched between two plates in a sample holder. In order to determine the energy which was incident on a sample for each test wavelength, the sample holder was movable in and out of the light beam and an energy meter was located behind the sample position so that the light beam would be directed onto the meter when a sample was not in position. The test wavelengths used were 950 nm, 850 nm, 800 nm and 780 nm. The energy meter was a Scientech AD30 meter employing a calorimetric detector type AC2501H supplied by Scientech.
Samples of the M4, M3 and M35 materials were tested for frequency doubling effect at each of the test wavelengths, the performance of each sample being judged qualitatively by eye by examination of the frequency doubled radiation scattered from the sample. These qualatative assessments were compared with that of a similarly prepared sample of urea having the same particle size as the materials of the invention. […] The M3 and M4 samples were ungraded while the M35 sample was a 212–300 μm graded sample.

Data set [3] is described as follows: Crystal stability on storage. As to conditions: on standing after removal from growing solution or in sealed container. In kind it is physicochemical.
For data set [4] the following is noted: transmission spectrum.
The nature of data set [5]: Initial screening of SHG response of powdered samples at 1064 nm. The format is physicochemical. As to conditions: ungraded powder between glass plates, pulsed Nd:YAG laser 1064 nm, green light judged by eye against ungraded urea or ADP. An excerpt: Samples of all of the materials prepared as described above were first subjected to an initial screening with the results shown in Table 1. For this examination ungraded (as to size) powdered samples of each material were sandwiched between two glass plates which were then held in the path of a pulsed Nd:YAG laser operating at 1064 nm. (Model SL804 from Spectron Laser Systems Ltd). The SHG response was judged by viewing the intensity of green light generated (viewed through laser goggles which passed green light but stopped the fundamental 1064 nm radiation). The SHG activity was qualitatively compared to that of a reference sample which was either ungraded urea or ammonium dihydrogen phosphate (ADP).

The conditions of data set [6]: crystals grown from solution by lowering temperature. Here is the method:
Crystals of M4, M35 and M3 were grown from solution by lowering the temperature of the saturated solutions. The crystal growth equipment consists of a heated tank of water into which the vessel containing the saturated solution of the material is held. The glass tank is heated through a UV block filter by an infra-red lamp. The temperature is controlled by a mercury contact thermometer. The glass tank is covered by aluminium foil to exclude UV in sunlight from entering the glass tank.
(§1) Crystals of M4 have been grown using the equipment described above, both from ethanol and IPA by reduction of temperature of the saturated solutions (12 g of M4 in 820 ml of ethanol) from 40° C. to 25° C. A seed crystal, which had been previously washed with a solvent was suspended from a stirrer and carefully introduced into the saturated solution. […] Several temperature decay rates were tried.
The solubility of M35 has been determined in isopropyl alcohol/water (10:1 ratio) mixture over a temperature range of 5° C. to 40° C.

How the values of data set [7] were obtained: as §1
[8] abbreviates: wavelength 780 nm, energy 16.7 mJ.
Setting [9] is: wavelength 800 nm, energy 14.8 mJ.
[10] abbreviates: wavelength 850 nm, energy 12.3 mJ.

For `N.O=P(O)(O)O` [ADP, ammonium dihydrogen phosphate, reference compound], the “Phase matching (SHG signal level at 532 nm as a function of particle size)” value (from here on “Phase matching”) in data set [1] is recorded as “phase matching materials”.

For the compound `NC(N)=O` [urea, reference compound], the “Phase matching” value in data set [1] is reported as “phase matching materials”.

Consider “Morpholinium 3,5-dihydroxybenzoate [Example M35]”, for which the “Frequency doubling compared with urea” value in data set [2] (setting [8]) is listed as “better”; in data set [2] (setting [9]), “slightly less”; in data set [2] (setting [10]) it was “same or better”; in data set [2] (wavelength 950 nm, energy 9 mJ), “same or better”. Also, the Stability of crystals entry in data set [3] is “stable and do not show any deterioration in quality”. Besides, the “Optical transparency limit of single crystal” value in data set [4] is listed as at least 350 mm. Also, in data set [5], the “SHG Response” value is “slightly better than urea”. Besides, in data set [6], the “SHG activity of grown crystals” value was “high SHG activity”. In data set [1], the “Phase matching” value is “does not decrease for increasing particle size”.

As to “Morpholinium 3-fluoro-4-hydroxybenzoate [Example M3F4]”, the “SHG Response” value in data set [5] is listed as “slightly weaker than that of urea”.

In the case of “Morpholinium 3-hydroxybenzoate [Example M3]”, the “Frequency doubling compared with urea” value in data set [2] (setting [8]) is reported as “Less”; in data set [2] (setting [9]) it was “Much less”; in data set [2] (setting [10]) it was “Less”; in data set [2] (wavelength 950 nm, energy 9 mJ), “Slightly less”. In data set [5], the “SHG Response” value was “slightly weaker than urea”. In addition, in data set [6], the “SHG activity of grown crystals” value is reported as “exhibit SHG activity”. Further, the “Phase matching” value in data set [1] is reported as “does not decrease for increasing particle size”.

Take “Morpholinium 4-hydroxybenzoate [Example M4]”: in data set [7] (IPA compared with ethanol), the Relative solubility result is “less soluble in IPA”. The “Amount in saturated solution” value in data set [7] (in 820 ml of ethanol, saturated solution, 40° C.) came out at 12 g. In addition, the “Frequency doubling compared with urea” value in data set [2] (setting [8]) is on record as “Slightly less”; in data set [2] (setting [9]), “Slightly less”; in data set [2] (setting [10]), “Slightly less”; in data set [2] (wavelength 950 nm, energy 9 mJ) it was “Better”. The “SHG Response” value in data set [5] is given as “better than for urea”. The “SHG activity of grown crystals” value in data set [6] is “high SHG activity”. The “Phase matching” value in data set [1] is “does not decrease for increasing particle size”.

In the case of “Morpholinium 4-hydroxycinnamate [Example M4HCA]”, in data set [5], the “SHG Response” value is “greater than that of urea; also recorded: better than urea”.

As for “dimorpholinium 2,3,5,6-tetrafluoro-4-hydroxybenzoate [Example M24F4]”, the “SHG Response” value in data set [5] was “weaker than that of urea but better than for ADP”.

“thiomorpholinium 3,5-dihydroxybenzoate [TM35]”: the “SHG Response” value in data set [5] was “slightly better than for urea”.

“thiomorpholinium 4-hydroxybenzoate [TM4]”: the Stability of crystals entry in data set [3] is “unstable, with the crystals becoming opaque over time”. Besides, in data set [5], the “SHG Response” value is on record as “slightly better than for ADP”.

For the origin of these results see US7081984B1, “Non-linear optical devices and materials therefor” (Qinetiq Limited, priority 1999, dated 2006).
